The target in this series is HSD17B13. The following applies: ASO, HepaRG.

After the bases stand the sugars from the 5' end (letter, count) and the backbone: PS all phosphorothioate, else s phosphorothioate and o phosphodiester by linkage. Methylation of C is not given here. e = 2'-O-(2-methoxyethyl) (MOE); k = constrained ethyl (cEt); d = 2'-deoxy (DNA); m = 2'-O-methyl

Consider “ATGTAATAGCCAGTAC (sugars k3 d1 m1 d8 k3, PS)”, for which the target mRNA inhibition (1 µM) is 42%.

ACAGCATCAAGACATT (sugars k3 d10 k3, PS) registered a target mRNA inhibition (1 µM) of 53%.

Where the note is “1 µM”, AAGTTAGTATAGTTAT (sugars k3 d10 k3, PS) gave a target mRNA inhibition of 20%.

As to GTAAACTGTATGCCTC (sugars k3 d10 k3, PS), the target mRNA inhibition (0.02 µM) amounted to 5%; the target mRNA inhibition (0.078 µM) came out at 30%; the target mRNA inhibition (0.313 µM) is 43%; the target mRNA inhibition (1 µM) was 74%; the target mRNA inhibition (1.25 µM) turned out to be 78%; the target mRNA inhibition (5 µM) came to 86%.

The sequence “AGGTUGAGATAAAGCT (sugars k3 d1 m1 d8 k3, PS)” returned a target mRNA inhibition (1 µM) of 58%.

Consider AATAATGGGCAGAGCT (sugars k3 d10 k3, PS), for which the target mRNA inhibition (1 µM) was found to be 43%.

The sequence AGGCAAAGATCTGGCC (sugars k3 d10 k3, PS) returned a target mRNA inhibition (1 µM) of 7%.

For the sequence TTTAGGATTAATTCCC (sugars k3 d10 k3, PS), the target mRNA inhibition (1 µM) amounted to 16%.

In turn, “GAATAGCAAGCCAACA (sugars k3 d1 m1 d8 k3, PS)” yielded a target mRNA inhibition (1 µM) of 23%.

In turn, CTAGATTCTACACTAA (sugars k3 d10 k3, PS) showed a target mRNA inhibition (1 µM) of 17%.

Turning to “GGTTGAGATAAAGCTG (sugars kkdddddddddkekek, PS)”, the target mRNA inhibition (1 µM) was found to be 60%.

GTCATAAAGGTGGGAT (sugars k3 d10 k3, PS): the target mRNA inhibition (1 µM) is 28%.

AAACTTCACCAACGAC (sugars k3 d10 k3, PS) displayed a target mRNA inhibition (1 µM) of 27%.

ATTCTATAGCTAAGTA (sugars k3 d10 k3, PS) came in with a target mRNA inhibition (1 µM) of 23%.

GTAATTACTTCTGATG (sugars k3 d10 k3, PS): for the setting “1 µM”, the target mRNA inhibition came to 41%.

Under “1 µM”, ACATACCACTCTTCTC (sugars k3 d10 k3, PS) gave a target mRNA inhibition of 35%.

For the setting “1 µM”, ATCTATCAGACTTCTT (sugars k3 d10 k3, PS) yielded a target mRNA inhibition of 47%.

GATTTTTGGTGAACCC (sugars k3 d10 k3, PS): the target mRNA inhibition (1 µM) is 30%.

Turning to AAATTACTCCGTTCTG (sugars k3 d10 k3, PS), under “1 µM”, the target mRNA inhibition was 28%.

For the sequence GACAACAGAGTTCTGT (sugars k3 d10 k3, PS), the target mRNA inhibition (1 µM) is 9%.

In the case of CATCTGTCTCCAATAC (sugars k3 d10 k3, PS), the target mRNA inhibition (1 µM) amounted to 32%.

CTCTCTAAAGGGCTGC (sugars k3 d10 k3, PS) had a target mRNA inhibition (1 µM) of 55%.

TGCAATAGTACTATAG (sugars k3 d10 k3, PS): the target mRNA inhibition (1 µM) was 24%.

In the case of ACTGGATGGATTTCTC (sugars k3 d10 k3, PS), the target mRNA inhibition is, setting by setting: (0.02 µM) 9%; (0.078 µM) 20%; (0.313 µM) 45%; (1 µM) 83%; (1.25 µM) 60%; (5 µM) 88%.

The sequence “GCTAGTGCCAAACCAA (sugars k3 d9 k3 e1, PS)” yielded a target mRNA inhibition (1 µM) of 70%.

Sequence “AGCTUTTGTCCACCTT (sugars k3 d1 m1 d8 k3, PS)” had a target mRNA inhibition (1 µM) of 72%.

As to ATGAAGTTAGTATAGT (sugars k3 d10 k3, PS), under “1 µM”, the target mRNA inhibition was 55%.

TACATCACCCACTTCT (sugars k3 d10 k3, PS) gave a target mRNA inhibition (1 µM) of 37%.

Where the note is “1 µM”, TCTCCAATACAGGCCA (sugars k3 d10 k3, PS) yielded a target mRNA inhibition of 21%.

For the sequence “ACATUGCAGTTATTAG (sugars k3 d1 m1 d8 k3, PS)”, the target mRNA inhibition (1 µM) was 26%.

For the setting “1 µM”, “TACTUGAACAGTCTTA (sugars k3 d1 m1 d8 k3, PS)” yielded a target mRNA inhibition of 38%.

In the case of “TTACAGCATCAAGACA (sugars k3 d9 k3 e1, PS)”, the target mRNA inhibition (1 µM) stood at 44%.

For the sequence “ATATTCTGTGGCATGG (sugars kkdddddddddkekek, PS)”, the target mRNA inhibition (1 µM) amounted to 43%.

Where the note is “1 µM”, ATGCTACTTGAACAGT (sugars k3 d10 k3, PS) gave a target mRNA inhibition of 47%.

The sequence CTCTAGGAGATATAAC (sugars k3 d10 k3, PS) had a target mRNA inhibition (1 µM) of 49%.

Sequence “GAAATTGATACACCAA (sugars k3 d9 k3 e1, PS)” gave a target mRNA inhibition (1 µM) of 64%.

Regarding “GTAATCACAAGTAAGG (sugars kkdddddddddkekek, PS)”, the target mRNA inhibition by setting is: (0.02 µM) 0%; (0.078 µM) 2%; (0.313 µM) 35%; (1 µM) 72%; (1.25 µM) 49%; (5 µM) 70%.

Sequence “TAGTGTAAGCTGAGAG (sugars k3 d9 k3 e1, PS)” returned a target mRNA inhibition (0.02 µM) of 6%; a target mRNA inhibition (0.078 µM) of 13%; a target mRNA inhibition (0.313 µM) of 52%; a target mRNA inhibition (1 µM) of 82%; a target mRNA inhibition (1.25 µM) of 69%; a target mRNA inhibition (5 µM) of 79%.

Regarding ATACTAATGTCCAAGG (sugars k3 d10 k3, PS), the target mRNA inhibition reads like this: (0.02 µM) 12%; (0.078 µM) 43%; (0.313 µM) 94%; (1 µM) 89%; (1.25 µM) 84%.

Sequence ATTTAAAATAGAGTCG (sugars k3 d10 k3, PS) yielded a target mRNA inhibition (1 µM) of 24%.

For GATAGATCTCTTCTCT (sugars k3 d10 k3, PS), the target mRNA inhibition (1 µM) is 0%.

The sequence GGTCACCTTTCATAAT (sugars k3 d10 k3, PS) had a target mRNA inhibition (1 µM) of 57%.

For the sequence TCCAATATATACTGAC (sugars k3 d10 k3, PS), the target mRNA inhibition (1 µM) was found to be 72%.

The sequence AGTTTAGAAGTCAAAC (sugars k3 d10 k3, PS) returned a target mRNA inhibition (1 µM) of 23%.

Regarding “ACAGTAAAATTATGCC (sugars kkdddddddddkekek, PS)”, the target mRNA inhibition (1 µM) turned out to be 28%.

GAGAGCGATAGATCTC (sugars k3 d10 k3, PS) showed a target mRNA inhibition (1 µM) of 1%.

For CATAGCTAACTCAGGC (sugars k3 d10 k3, PS), the target mRNA inhibition (1 µM) was 29%.

For the setting “1 µM”, AGGTATGTCATACTTC (sugars k3 d10 k3, PS) came in with a target mRNA inhibition of 5%.

In turn, TATACCTGTTGCCTAG (sugars k3 d10 k3, PS) yielded a target mRNA inhibition (1 µM) of 11%.

For the sequence GGGAAATTGTTGCTGT (sugars k3 d10 k3, PS), the target mRNA inhibition (1 µM) turned out to be 42%.

In turn, ATGTCTTGGTAATCTC (sugars k3 d10 k3, PS) returned a target mRNA inhibition (1 µM) of 23%.

With ACTGCTGCTAGTGCCA (sugars k3 d10 k3, PS), the target mRNA inhibition (1 µM) amounted to 47%.

In turn, TATTCCAGGATTTGCT (sugars k3 d10 k3, PS) returned a target mRNA inhibition (1 µM) of 43%.

Sequence GACAATACAGGATAGA (sugars k3 d10 k3, PS) returned a target mRNA inhibition (1 µM) of 43%.

For the setting “1 µM”, “TCCCAACCAAACTTCC (sugars k3 d1 m1 d8 k3, PS)” had a target mRNA inhibition of 43%.

In the case of “GTCTUGATGTAGTGGG (sugars k3 d1 m1 d8 k3, PS)”, the target mRNA inhibition (1 µM) is 63%.

Sequence TCTTAGCTGTGCACTC (sugars k3 d10 k3, PS) showed a target mRNA inhibition (1 µM) of 69%.

“TCTCTTAGCTGTGCAC (sugars k3 d9 k3 e1, PS)” displayed a target mRNA inhibition (1 µM) of 69%.

In turn, “CATAATAATAGCTCTA (sugars k3 d9 k3 e1, PS)” came in with a target mRNA inhibition (1 µM) of 55%.

Sequence TATACTGAAGGCTGTG (sugars k3 d10 k3, PS) gave a target mRNA inhibition (1 µM) of 44%.

Consider ACTATCAGAACAGTTC (sugars k3 d10 k3, PS), for which, under “1 µM”, the target mRNA inhibition was found to be 62%.

Consider ATATTGAGGCACTGGA (sugars k3 d10 k3, PS), for which, under “1 µM”, the target mRNA inhibition worked out at 53%.

For GTGCATCTTAAGATAC (sugars k3 d10 k3, PS), the target mRNA inhibition (1 µM) amounted to 47%.

Sequence GATTGCACAAACCACA (sugars k3 d10 k3, PS) came in with a target mRNA inhibition (1 µM) of 73%.

Turning to GATAAGTAGATGGTAA (sugars k3 d10 k3, PS), the target mRNA inhibition (1 µM) was determined as 59%.

Where the note is “1 µM”, ATGGATCTAGAACACT (sugars k3 d10 k3, PS) registered a target mRNA inhibition of 43%.

Take TCTATACAAAGGCAGT (sugars k3 d10 k3, PS): the target mRNA inhibition (1 µM) was 53%.

Consider GTTCAAATTGGATGCA (sugars k3 d10 k3, PS), for which the target mRNA inhibition (1 µM) is 68%.

For the sequence CAAACATGGATGTTAG (sugars k3 d10 k3, PS), the target mRNA inhibition (1 µM) stood at 49%.

“GATGCTCCATAATAAT (sugars kkdddddddddkekek, PS)”: the target mRNA inhibition (1 µM) came out at 17%.

For ACAATACAGGATAGAG (sugars k3 d10 k3, PS), the target mRNA inhibition (1 µM) came out at 23%.

In the case of ATATTATCAGGACTGA (sugars k3 d10 k3, PS), where the note is “1 µM”, the target mRNA inhibition was found to be 47%.

Consider TAGTATAGTTATCTTC (sugars k3 d10 k3, PS), for which the target mRNA inhibition (1 µM) turned out to be 28%.

For the setting “1 µM”, AAAGATGTACACTGAC (sugars k3 d10 k3, PS) showed a target mRNA inhibition of 57%.

As to TATTGATATACGATGG (sugars k3 d10 k3, PS), where the note is “1 µM”, the target mRNA inhibition is 16%.

Consider AAGTATTCCATCTATC (sugars k3 d10 k3, PS), for which the target mRNA inhibition (1 µM) turned out to be 52%.

For the sequence ATACTTTTCCGTCTCA (sugars k3 d10 k3, PS), the target mRNA inhibition (0.02 µM) was determined as 10%; the target mRNA inhibition (0.078 µM) stood at 41%; the target mRNA inhibition (0.313 µM) was found to be 71%; the target mRNA inhibition (1 µM) worked out at 90%; the target mRNA inhibition (1.25 µM) stood at 90%.

Under “1 µM”, GAAATTCACCTTGACT (sugars k3 d10 k3, PS) returned a target mRNA inhibition of 41%.

Sequence TCCTAGGATGTTGACC (sugars k3 d10 k3, PS) yielded a target mRNA inhibition (1 µM) of 0%.

Where the note is “1 µM”, TCTCTTGGGTCCATTG (sugars k3 d10 k3, PS) showed a target mRNA inhibition of 63%.

With ATAGAGTCGGTCACCT (sugars k3 d10 k3, PS), the target mRNA inhibition (1 µM) amounted to 60%.

Under “1 µM”, GAGTATAAATGGCAAT (sugars k3 d10 k3, PS) displayed a target mRNA inhibition of 53%.

On to GATGTATACATTACCT (sugars k3 d10 k3, PS), for which, for the setting “1 µM”, the target mRNA inhibition worked out at 67%.

“CTGTGTTAGCTTTAAT (sugars k3 d1 m1 d8 k3, PS)” displayed a target mRNA inhibition (1 µM) of 41%.

These data come from the OligoGym collection.
